Results published in BindingDB's records for doi:10.1021/jm4017448 (China Pharmaceutical University, 2013).

Molecular target: Glucagon-like peptide 1 receptor (Homo sapiens, UniProt P43220)
Assay: Activation of human GLP-1 receptor overexpressed in HEK293 cells assessed as cAMP accumulation after 20 mins by HTRF assay

Chain of Glucagon-like peptide 1 receptor (P43220 whole entry): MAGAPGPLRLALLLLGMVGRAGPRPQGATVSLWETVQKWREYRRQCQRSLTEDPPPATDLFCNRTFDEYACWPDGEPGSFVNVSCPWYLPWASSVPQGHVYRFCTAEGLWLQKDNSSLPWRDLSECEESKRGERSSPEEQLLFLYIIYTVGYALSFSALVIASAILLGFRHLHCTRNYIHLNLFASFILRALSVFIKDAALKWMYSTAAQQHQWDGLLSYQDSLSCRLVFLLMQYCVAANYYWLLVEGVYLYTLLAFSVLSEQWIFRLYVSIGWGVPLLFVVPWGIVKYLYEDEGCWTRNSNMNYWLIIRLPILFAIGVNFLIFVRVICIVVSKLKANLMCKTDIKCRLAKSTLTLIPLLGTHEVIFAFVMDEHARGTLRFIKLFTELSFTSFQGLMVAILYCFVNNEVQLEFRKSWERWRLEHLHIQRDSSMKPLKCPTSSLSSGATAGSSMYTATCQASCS

Compound | EC50
CC[C@H](C)[C@H](NC(=O)[C@H](Cc1ccccc1)NC(=O)[C@H](CCC(=O)O)NC(=O)[C@H](CCCCN)NC(=O)[C@H](C)NC(=O)[C@H](C)NC(=O)[C@H](CCC(N)=O)NC(=O)CNC(=O)[C@H](CCC(=O)O)NC(=O)[C@H](CC(C)C)NC(=O)[C@H](Cc1ccc(O)cc1)NC(=O)[C@H](CO)NC(=O)[C@H](CO)NC(=O)[C@@H](NC(=O)[C@H](CC(=O)O)NC(=O)[C@H](CO)NC(=O)[C@@H](NC(=O)[C@H](Cc1ccccc1)NC(=O)[C@@H](NC(=O)CNC(=O)[C@H](CCC(=O)O)NC(=O)CNC(=O)[C@@H](N)Cc1cnc[nH]1)[C@@H](C)O)[C@@H](C)O)C(C)C)C(=O)N[C@@H](C)C(=O)N[C@@H](Cc1c[nH]c2ccccc12)C(=O)N[C@@H](CC(C)C)C(=O)N[C@H](C(=O)N[C@@H](CCCCN)C(=O)NCC(=O)N[C@@H](CCCNC(=N)N)C(=O)N[C@@H](CSC1CC(=O)N(CCCCCC(=O)Nc2ccc(C(c3c(O)c4ccccc4oc3=O)c3c(O)c4ccccc4oc3=O)cc2)C1=O)C(N)=O)C(C)C (some centres not stated) | 3 pM
CC[C@H](C)[C@H](NC(=O)[C@H](Cc1ccccc1)NC(=O)[C@H](CCC(=O)O)NC(=O)[C@H](CS)NC(=O)[C@H](C)NC(=O)[C@H](C)NC(=O)[C@H](CCC(N)=O)NC(=O)CNC(=O)[C@H](CCC(=O)O)NC(=O)[C@H](CC(C)C)NC(=O)[C@H](Cc1ccc(O)cc1)NC(=O)[C@H](CO)NC(=O)[C@H](CO)NC(=O)[C@@H](NC(=O)[C@H](CC(=O)O)NC(=O)[C@H](CO)NC(=O)[C@@H](NC(=O)[C@H](Cc1ccccc1)NC(=O)[C@@H](NC(=O)CNC(=O)[C@H](CCC(=O)O)NC(=O)CNC(=O)[C@@H](N)Cc1cnc[nH]1)[C@@H](C)O)[C@@H](C)O)C(C)C)C(=O)N[C@@H](C)C(=O)N[C@@H](Cc1c[nH]c2ccccc12)C(=O)N[C@@H](CC(C)C)C(=O)N[C@H](C(=O)N[C@@H](CCCCN)C(=O)NCC(=O)N[C@@H](CCCNC(=N)N)C(N)=O)C(C)C | 3 pM
